Reference: ChEMBL document CHEMBL6153060, “Structure-Based Design of Novel TLR7/8 Agonist Payloads Enabling an Immunomodulatory Conjugate Approach” (ACS Med Chem Lett, 2025)

Key:
[1] = Metabolic stability in mouse liver microsomes assessed as compound remaining; assay type: ADME, Microsome
[2] = Metabolic stability in human liver microsomes assessed as compound remaining after 30 mins; assay type: ADME, Microsome; conditions: read-out: Stability

Stability [1]: 1%
remaining at 0.5 h [2]: 4%
Structure (SMILES): CCC[C@@H](CCO)Nc1nc(N)nc2c3ccccc3n(Cc3cc(CNC[C@@H]4CCOC4)ccc3OC)c12
